# Assays:
# Assay in all cases: increase in dead-cell fraction, 72 h; higher = more death;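 note: breast cancer cell lines in 384-well plates, stained with Hoechst plus LIVE/DEAD far red dye and imaged, cells above an LDR intensity threshold counted dead, Hoechst-negative corpses included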
# [1] = compound: C1=CC(=CC(=C1)N2C(=O)C=CC3=CN=C4C=CC(=CC4=C32)C5=CN=C(C=C5)N)C(F)(F)F [Torin2]
# [2] = compound: CC(=O)Nc1cccc(-n2c(=O)n(C3CC3)c(=O)c3c(Nc4ccc(I)cc4F)n(C)c(=O)c(C)c32)c1
# [3] = compound: CC(=O)O[C@H]1C(=O)[C@@]2(C)[C@H]([C@H](OC(=O)c3ccccc3)[C@]3(O)C[C@H](OC(=O)[C@H](O)[C@@H](NC(=O)c4ccccc4)c4ccccc4)C(C)=C1C3(C)C)[C@]1(OC(C)=O)CO[C@@H]1C[C@@H]2O [Paclitaxel]
# [4] = compound: CCC1=CN=CN=C1N2CCN(CC2)CC3=NC4=C(N3)C=C(C=C4)C(F)(F)F
# [5] = compound: CN1CCN(C(=O)c2ccc3cc(CCNc4ncnc5ccc(C#N)cc45)ccc3c2)CC1 [senexin b]
# [6] = compound: CNCc1ccc(-c2[nH]c3cc(F)cc4c3c2CCNC4=O)cc1 [Rucaparib]
# [7] = compound: CO[C@H]1C[C@@H]2CC[C@@H](C)[C@@](O)(O2)C(=O)C(=O)N2CCCC[C@H]2C(=O)O[C@H]([C@H](C)C[C@@H]2CC[C@@H](OCCO)[C@H](OC)C2)CC(=O)[C@H](C)/C=C(\C)[C@@H](O)[C@@H](OC)C(=O)[C@H](C)C[C@H](C)/C=C/C=C/C=C/1C [Everolimus]
# [8] = compound: COc1cccc(OCCCN)c1-c1cc(Nc2cnc(C#N)cn2)n[nH]1
# [9] = compound: Cc1nn(C)c(COc2ccc(N3CCN(S(=O)(=O)N(C)C)CC3)cc2)c1-c1cccc2c(CCCOc3cccc4ccccc34)c(C(=O)O)n(CCN3CCOCC3)c12
# [10] = compound: O=C(c1cc(Cc2n[nH]c(=O)c3ccccc23)ccc1F)N1CCN(C(=O)C2CC2)CC1 [Olaparib/AZD2281]
# [11] = compound: O=C1NC(=O)[C@@H](c2cn3c4c(cccc24)CCC3)[C@@H]1c1c[nH]c2ccccc12 [Tivantinib/ARQ197]
cell line,measurement,setting,value
AU565,increase in dead-cell fraction,[1]; 0.0001 µM,0.0019
same,increase in dead-cell fraction,[1]; 0.0003162 µM,0.0033
same,increase in dead-cell fraction,[1]; 0.001 µM,0.0025
same,increase in dead-cell fraction,[1]; 0.003162 µM,0.0127
same,increase in dead-cell fraction,[1]; 0.01 µM,0.032
same,increase in dead-cell fraction,[1]; 0.03162 µM,0.0466
same,increase in dead-cell fraction,[1]; 0.1 µM,0.0874
same,increase in dead-cell fraction,[1]; 0.3162 µM,0.0982
same,increase in dead-cell fraction,[1]; 1 µM,0.121
same,increase in dead-cell fraction,[2]; 0.0001 µM,0.0026
same,increase in dead-cell fraction,[2]; 0.0003162 µM,0.0025
same,increase in dead-cell fraction,[2]; 0.001 µM,0.0021
same,increase in dead-cell fraction,[2]; 0.003162 µM,0.0022
same,increase in dead-cell fraction,[2]; 0.01 µM,0.0009
same,increase in dead-cell fraction,[2]; 0.03162 µM,-0.0017
same,increase in dead-cell fraction,[2]; 0.1 µM,-0.0015
same,increase in dead-cell fraction,[2]; 0.3162 µM,-0.0026
same,increase in dead-cell fraction,[2]; 1 µM,0.0032
same,increase in dead-cell fraction,[3]; 0.0001 µM,0.0067
same,increase in dead-cell fraction,[3]; 0.0003162 µM,0.0015
same,increase in dead-cell fraction,[3]; 0.001 µM,0.0164
same,increase in dead-cell fraction,[3]; 0.003162 µM,0.226
same,increase in dead-cell fraction,[3]; 0.01 µM,0.312
same,increase in dead-cell fraction,[3]; 0.03162 µM,0.333
same,increase in dead-cell fraction,[3]; 0.1 µM,0.324
same,increase in dead-cell fraction,[3]; 0.3162 µM,0.278
same,increase in dead-cell fraction,[3]; 1 µM,0.303
same,increase in dead-cell fraction,[4]; 0.001 µM,0.0018
same,increase in dead-cell fraction,[4]; 0.003162 µM,-0.0015
same,increase in dead-cell fraction,[4]; 0.01 µM,-0.0042
same,increase in dead-cell fraction,[4]; 0.03162 µM,-0.0013
same,increase in dead-cell fraction,[4]; 0.1 µM,0.0031
same,increase in dead-cell fraction,[4]; 0.3162 µM,-0.0005
same,increase in dead-cell fraction,[4]; 1 µM,0.001
same,increase in dead-cell fraction,[4]; 3.162 µM,0.0056
same,increase in dead-cell fraction,[4]; 10 µM,0.0157
same,increase in dead-cell fraction,[5]; 0.001 µM,-0.0057
same,increase in dead-cell fraction,[5]; 0.003162 µM,-0.0066
same,increase in dead-cell fraction,[5]; 0.01 µM,-0.0019
same,increase in dead-cell fraction,[5]; 0.03162 µM,-0.0056
same,increase in dead-cell fraction,[5]; 0.1 µM,-0.0146
same,increase in dead-cell fraction,[5]; 0.3162 µM,0.0036
same,increase in dead-cell fraction,[5]; 1 µM,0.0078
same,increase in dead-cell fraction,[5]; 3.162 µM,0.0105
same,increase in dead-cell fraction,[5]; 10 µM,-0.0068
same,increase in dead-cell fraction,[6]; 0.001 µM,0.0051
same,increase in dead-cell fraction,[6]; 0.003162 µM,-0.0024
same,increase in dead-cell fraction,[6]; 0.01 µM,0.0015
same,increase in dead-cell fraction,[6]; 0.03162 µM,0.0073
same,increase in dead-cell fraction,[6]; 0.1 µM,-0.0049
same,increase in dead-cell fraction,[6]; 0.3162 µM,-0.0044
same,increase in dead-cell fraction,[6]; 1 µM,-0.0017
same,increase in dead-cell fraction,[6]; 3.162 µM,-0.0036
same,increase in dead-cell fraction,[6]; 10 µM,-0.0017
same,increase in dead-cell fraction,[7]; 0.001 µM,0.0191
same,increase in dead-cell fraction,[7]; 0.003162 µM,0.0225
same,increase in dead-cell fraction,[7]; 0.01 µM,0.0257
same,increase in dead-cell fraction,[7]; 0.03162 µM,0.0132
same,increase in dead-cell fraction,[7]; 0.1 µM,0.0177
same,increase in dead-cell fraction,[7]; 0.3162 µM,0.0133
same,increase in dead-cell fraction,[7]; 1 µM,0.011
same,increase in dead-cell fraction,[7]; 3.162 µM,0.019
same,increase in dead-cell fraction,[7]; 10 µM,0.0283
same,increase in dead-cell fraction,[8]; 10 pM,-0.002
same,increase in dead-cell fraction,[8]; 31.6 pM,-0.0013
same,increase in dead-cell fraction,[8]; 0.0001 µM,-0.0035
same,increase in dead-cell fraction,[8]; 0.0003162 µM,-0.0022
same,increase in dead-cell fraction,[8]; 0.001 µM,0.139
same,increase in dead-cell fraction,[8]; 0.003162 µM,0.168
same,increase in dead-cell fraction,[8]; 0.01 µM,0.194
same,increase in dead-cell fraction,[8]; 0.03162 µM,0.187
same,increase in dead-cell fraction,[8]; 0.1 µM,0.211
same,increase in dead-cell fraction,[9]; 0.001 µM,0.0054
same,increase in dead-cell fraction,[9]; 0.003162 µM,0.0034
same,increase in dead-cell fraction,[9]; 0.01 µM,0.0061
same,increase in dead-cell fraction,[9]; 0.03162 µM,0.0001
same,increase in dead-cell fraction,[9]; 0.1 µM,0.0007
same,increase in dead-cell fraction,[9]; 0.3162 µM,-0.0037
same,increase in dead-cell fraction,[9]; 1 µM,0.0003
same,increase in dead-cell fraction,[9]; 3.162 µM,0.0012
same,increase in dead-cell fraction,[9]; 10 µM,0.0111
same,increase in dead-cell fraction,[10]; 0.001 µM,-0.0007
same,increase in dead-cell fraction,[10]; 0.003162 µM,-0.0016
same,increase in dead-cell fraction,[10]; 0.01 µM,0.0011
same,increase in dead-cell fraction,[10]; 0.03162 µM,-0.0026
same,increase in dead-cell fraction,[10]; 0.1 µM,0.0033
same,increase in dead-cell fraction,[10]; 0.3162 µM,-0.0012
same,increase in dead-cell fraction,[10]; 1 µM,-0.006
same,increase in dead-cell fraction,[10]; 3.162 µM,-0.0026
same,increase in dead-cell fraction,[10]; 10 µM,0.0043
same,increase in dead-cell fraction,[11]; 0.001 µM,-0.0007
same,increase in dead-cell fraction,[11]; 0.003162 µM,-0.0033
same,increase in dead-cell fraction,[11]; 0.01 µM,-0.0012
same,increase in dead-cell fraction,[11]; 0.03162 µM,-0.0029
same,increase in dead-cell fraction,[11]; 0.1 µM,0.0087
same,increase in dead-cell fraction,[11]; 0.3162 µM,0.0601
same,increase in dead-cell fraction,[11]; 1 µM,0.263
same,increase in dead-cell fraction,[11]; 3.162 µM,0.306
same,increase in dead-cell fraction,[11]; 10 µM,0.3

# From the supplement of paper PMC9663587
